{"source": "paper PMC9298352", "about": "“Design, Synthesis and Structural Analysis of Glucocerebrosidase Imaging Agents” (Chemistry (Weinheim an Der Bergstrasse, Germany), 2021)", "key": {"[1]": {"biological_target": "T1, overexpressed GBA2 in HEK293T cells (Homo sapiens, UniProt Q9HCG7)", "T1 construct": "expressed in transfected cells; host or cells: HEK293T", "T1 sequence (Q9HCG7 1-927)": "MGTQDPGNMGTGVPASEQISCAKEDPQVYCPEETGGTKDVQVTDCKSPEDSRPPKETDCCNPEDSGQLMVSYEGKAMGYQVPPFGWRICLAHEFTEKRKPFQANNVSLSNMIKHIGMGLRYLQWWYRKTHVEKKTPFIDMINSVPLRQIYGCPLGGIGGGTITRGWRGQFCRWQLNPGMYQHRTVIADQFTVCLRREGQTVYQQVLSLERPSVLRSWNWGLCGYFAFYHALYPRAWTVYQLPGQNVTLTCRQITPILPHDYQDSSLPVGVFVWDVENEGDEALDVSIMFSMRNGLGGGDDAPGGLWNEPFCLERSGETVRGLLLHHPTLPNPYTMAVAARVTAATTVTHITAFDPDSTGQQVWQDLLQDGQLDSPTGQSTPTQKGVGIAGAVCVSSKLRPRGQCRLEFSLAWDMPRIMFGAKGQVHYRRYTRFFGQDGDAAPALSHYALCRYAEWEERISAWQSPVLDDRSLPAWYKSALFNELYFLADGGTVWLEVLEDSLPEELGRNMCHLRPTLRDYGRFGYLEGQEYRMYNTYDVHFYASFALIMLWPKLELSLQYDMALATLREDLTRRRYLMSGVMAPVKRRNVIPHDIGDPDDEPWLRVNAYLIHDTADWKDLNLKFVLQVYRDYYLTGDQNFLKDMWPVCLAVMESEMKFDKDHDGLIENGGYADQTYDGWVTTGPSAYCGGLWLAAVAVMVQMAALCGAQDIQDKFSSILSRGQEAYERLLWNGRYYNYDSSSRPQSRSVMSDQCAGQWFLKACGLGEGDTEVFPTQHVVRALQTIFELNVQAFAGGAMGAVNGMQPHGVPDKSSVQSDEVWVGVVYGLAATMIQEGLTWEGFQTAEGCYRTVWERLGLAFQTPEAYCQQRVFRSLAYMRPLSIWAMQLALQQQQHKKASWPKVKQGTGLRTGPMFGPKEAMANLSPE", "experiment": "In situ labeling of GBA2 in living HEK293T cells (gel-based ABPP)", "format": "cell-based", "settings": "HEK293T cells overexpressing GBA2, 1–1000 nM, 24 h, 37 °C", "protocol": "(§1) HEK293T cells containing endogenous GBA and overexpressed GBA2 were treated with the ABPs at different concentrations (1–1000 nM) for 24 hr. Cells were then washed, lysed and the fluorescence was visualized by gel‐based ABPP (Figure 8).\n(§2) CBB, Coomassie Brilliant Blue staining (bottom panel).\n(§3) Labelling of HEK293T cells, containing endogenous GBA and overexpressed GBA2, with ABPs 6, 8 and 9 was conducted based on previously described methods[69] as outlined in the Supporting Information (page 7).\n(§4) Cy5 tetrazine 20 (2.83 mg, 4.3 µmol) was added to a solution of norbornene 19 (0.94 mg, 2.38 µmol) in MeOH (4 mL). After stirring overnight at rt, the reaction mixture was concentrated in vacuo and purified by HPLC under neutral conditions (A: 50 mM NH4HCO3 in H2O; B: MeCN; 49% → 52%, A in […]\n(§5) Biochemical Methods: General Experimental Details\n(§6) Recombinant human GBA (rhGBA, imiglucerase, Cerezyme®) and GAA (rhGAA, alglucosidase alfa, Myozyme) were obtained from Sanofi Genzyme (Cambridge, MA, USA). HEK293T (CRL-3216) cell lines were purchased from ATCC (Manassas, VA, USA). Cell lines were […]\n(§7) (1 picture or pasted object on this page, not shown here)"}, "[2]": {"biological_target": "T2, endogenous GBA in HEK293T cells (Homo sapiens, UniProt P04062)", "T2 construct": "endogenous in cells; host or cells: HEK293T", "T2 sequence (P04062 40-536)": "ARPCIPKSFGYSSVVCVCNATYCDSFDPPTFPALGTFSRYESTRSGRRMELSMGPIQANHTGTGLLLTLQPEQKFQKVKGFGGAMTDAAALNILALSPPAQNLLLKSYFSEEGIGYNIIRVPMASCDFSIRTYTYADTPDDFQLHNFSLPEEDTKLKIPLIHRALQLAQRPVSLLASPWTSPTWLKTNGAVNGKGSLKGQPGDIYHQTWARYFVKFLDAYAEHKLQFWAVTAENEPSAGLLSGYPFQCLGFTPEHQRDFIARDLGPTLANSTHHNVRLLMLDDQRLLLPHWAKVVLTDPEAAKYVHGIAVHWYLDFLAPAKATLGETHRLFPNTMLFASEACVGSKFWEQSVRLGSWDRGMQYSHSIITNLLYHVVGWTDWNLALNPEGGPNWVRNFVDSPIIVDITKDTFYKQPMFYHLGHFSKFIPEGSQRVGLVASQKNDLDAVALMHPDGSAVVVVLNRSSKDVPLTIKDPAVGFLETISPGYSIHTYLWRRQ", "experiment": "In situ labeling of GBA in living HEK293T cells (gel-based ABPP)", "format": "cell-based", "settings": "1–1000 nM, 24 h, 37 °C", "protocol": "as §1, §2, §3, §4, §5, §6, §7"}, "rhGBA": {"biological_target": "T3, rhGBA (Homo sapiens, UniProt P04062)", "T3 construct": "made in house; host or cells: insect-baculovirus expression vector system (BEVS)", "T3 sequence (P04062 40-536)": "T2 sequence (P04062 40-536)", "experiment": "rhGBA titration with constant ABP 6 and ABP 9 (gel-based labelling)", "format": "biochemical", "settings": "ABP 150 nM, rhGBA 500–0.01 nM, 37 °C, 30 mins", "protocol": "Maximum‐likelihood/σA weighted (2Fo–Fc) electron density map contoured to 1.0 σ (a=1.31 e^−/Å^3). […] Fluorescently labelled rhGBA visualized by Cy5 fluorescent readout. D=denatured protein sample.\nrhGBA produced in BEVS[58] was prepared at 500, 250, 100, 50, 10, 1, 0.1 and 0.01 nM in 150 mM McIlvaine buffer pH 5.2 (supplemented with 0.1 % (v/v) Triton X‐100 and 0.2 % (w/v) sodium taurocholate). […] The samples were denatured with Laemmli (x3) sample buffer by heating at 95 °C for 5 minutes and resolved by electrophoresis in 10 % SDS‐PAGE gels, running at 200 V for ∼50 minutes. Wet slab gels were scanned on fluorescence using an Amersham Typhoon 5 Imager (GE Healthcare) with λEX 635 nm; λEM >665 nm."}}, "data": [{"smiles": "CCCCCCCCN1[C@@H]2[C@H](Cn3cc(CNC(=O)CCCCC[N+]4=C(/C=C/C=C/C=C5/N(C)c6ccccc6C5(C)C)C(C)(C)c5ccccc54)nn3)[C@@H](O)[C@H](O)[C@@H](O)[C@@H]21", "note": "(stereo partly drawn) [ABP 6]", "values": [{"measurement": "ABP concentration at which in situ labeling of GBA2 is observed", "setting": "[1]", "result": 100, "unit": "nM"}, {"measurement": "ABP concentration at which in situ labeling of GBA is observed", "setting": "[2]", "result": 10, "unit": "nM"}, {"measurement": "lowest rhGBA concentration labelled", "setting": "rhGBA", "result": 1, "unit": "nM"}]}]}
